≈ marks a conversion by molar mass, not a printed value. Where “and” joins values, the source holds several entries; their conditions need not be identical. Equal entries are not always repeated. Where two headings read alike, the source gives them in different places.
Key:
XcMetRS (WT) [1] = biological target: T1, XcMetRS (WT) (Xanthomonas citri pv. citri, UniProt Q8PMP0); type: binding; set-up: His tag with TEV site (from pET28-TEV vector) (N); made in house; host or cells: E. coli BL21(DE3)
Method: All wells contained 2% DMSO used to prepare stock solutions of REP3123 and REP8839. Protein unfolding was monitored on a 7500 Real-Time PCR System (Applied Biosystems) cycler by measuring fluorescence (λEmission = 580 nm) during 71 cycles starting at 25 °C, with a one-degree Celsius increment at each cycle. Experimental data points were normalized and adjusted to the equation y = ymin + ((ymax − ymin)/(1 + e^(Tm − T)/S)), where ymax and ymin are normalized fluorescence values, Tm is the melting temperature, T is the temperature, and S is the slope.

XcMetRS (WT) [2] = biological target: T1, XcMetRS (WT); experiment: XcMetRS enzyme kinetic assay (coupled fluorometric AMP/resorufin assay); type: biochemical; set-up: His tag with TEV site (from pET28-TEV vector) (N); made in house; host or cells: E. coli BL21(DE3)
Text: Similarly, vmax^app, K’, and Hill slope (h) were obtained for ATP using the equation v = (vmax^app x [S]^h)/(K’ + [S]^h). The catalytic rate constant (kcat) was estimated by the equation kcat = vmax^app/Et, where Et is the enzyme concentration in the assay.

X. citri strain 306 = experiment: Antibiogram, agar disc-diffusion assay; settings: X. citri strain 306, LBON-agar, 24 h at 28 °C
Method: (§1) X. citri 306 was cultivated on LBON medium (10 g/l tryptone; 5 g/l yeast extract; pH 7.0) at 28 °C. The susceptibility to distinct antibiotics was evaluated using the disc-diffusion method. Briefly, a bacterial suspension was prepared in sterile saline solution (0.85% NaCl) to an optical density of 0.1 (approximately 1.5 × 10^8 CFU/ml) and used to inoculate the surface of an LBON-agar plate (1.7% agar; 150 × 15 mm Petri dish; 55 ml/dish). Antibiotic discs were applied 15 min after inoculum, and after incubation for 24 h at 28 °C, images were recorded with a camera. The minimum inhibitory concentration was obtained through broth microdilution method. These assays were performed with eight replicates for each compound concentration. Serial 2-fold dilutions of compounds were prepared in DMSO and 1 μl transferred to sterile 96-well assay plates containing 49 μl of the culture media (LBON). Then, 50 μl of a bacterial suspension (1 × 10^6 CFU/ml) was added to each well. Plates were incubated at 28 °C for 24 h before addition of 10 μl of resazurin 0.02%. After a new incubation (up to 4 h), the fluorescence (λExc/Em = 570–615 nm) was measured using a plate reader (CLARIOstar, BMG LabTech). Blanks were prepared with culture media. Positive and negative controls were prepared with DMSO and tetracycline (10 μg/ml).

[3] = biological target: coupled enzyme system (ScAMD, CjIMPDH, diaphorase); experiment: Control: inhibition of the coupled enzyme system used to detect AMP production; settings: read-out: IC50 on coupled enzyme system, without XcMetRS step
Method: Inhibition studies using the XcMetRS-ScAMD-CjIMPDH-diaphorase–coupled assay (Fig. S2) were performed at various concentrations (half-log serial dilutions starting at 100 μM) of the inhibitors in anhydrous dimethyl sulfoxide (DMSO). Assays were performed at 25 °C in black 384-well microplates in 25-μl final volume in 0.1 M Tris HCl, pH 7.5, 0.15 M KCl, 10 mM MgCl2, and 0.01% Triton X-100.
Values correspond to measurements of four independent experiments and error bars denote standard deviations.

X. citri 306 = experiment: X. citri growth inhibition, broth microdilution with resazurin; settings: for MIC (minimum inhibitory concentration): X. citri 306, LBON, 28 °C, 24 h, at least 90% growth inhibition; for EC50 / MIC: Xanthomonas citri, 306, 24 h; for EC50: read-out: EC50 (growth inhibition); for MIC: read-out: MIC (minimum inhibitory concentration)
Method: as §1

XcMetRS = biological target: T2, XcMetRS (Xanthomonas citri pv. citri, UniProt Q8PMP0); experiment: Isothermal titration calorimetry (ITC); type: binding; settings: for Kd: 20 °C
T2 construct: His tag with TEV site (from pET28-TEV vector) (N); made in house; host or cells: E. coli BL21(DE3)
Method: ITC measurements were performed on a MicroCal VP-ITC calorimeter equipped with a VPViewer2000 software for data acquisition at the Spectroscopy and Calorimetry Lab facility (LEC) from the Brazilian Bioscience National Laboratory/Brazilian Centre for Research in Energy and Materials (LNBio/CNPEM). Purified XcMetRS (10 μM) was titrated against the ligands in 0.1 M Hepes, pH 7.5, containing 0.3 M NaCl, 10 mM MgCl2, 5% glycerol in the absence or presence of AMP or ATP at a 5 mM final concentration. To avoid nucleotide dilution, AMP/ATP was added to both ligand and receptor solutions. The ligands were added to the protein solutions kept in a 2-ml experimental cell using a titration syringe. The reactions were performed at 20 °C under agitation (200 rpm), starting with a first injection of 2 μl of ligand solution (200 μM) during 4 s, followed by 27 injections of 10 μl with 200-s intervals between injections. Titration results were corrected for ligand dilution, and all the data were analyzed using Origin7.0 software.

XcMetRS (WT) [4] = biological target: T1, XcMetRS (WT)
Method: Inhibition studies using the XcMetRS-ScAMD-CjIMPDH-diaphorase–coupled assay (Fig. S2) were performed at various concentrations (half-log serial dilutions starting at 100 μM) of the inhibitors in anhydrous dimethyl sulfoxide (DMSO). Assays were performed at 25 °C in black 384-well microplates in 25-μl final volume in 0.1 M Tris HCl, pH 7.5, 0.15 M KCl, 10 mM MgCl2, and 0.01% Triton X-100. […] Plots were prepared in GraphPad Prism.

T1 sequence (Q8PMP0 whole entry): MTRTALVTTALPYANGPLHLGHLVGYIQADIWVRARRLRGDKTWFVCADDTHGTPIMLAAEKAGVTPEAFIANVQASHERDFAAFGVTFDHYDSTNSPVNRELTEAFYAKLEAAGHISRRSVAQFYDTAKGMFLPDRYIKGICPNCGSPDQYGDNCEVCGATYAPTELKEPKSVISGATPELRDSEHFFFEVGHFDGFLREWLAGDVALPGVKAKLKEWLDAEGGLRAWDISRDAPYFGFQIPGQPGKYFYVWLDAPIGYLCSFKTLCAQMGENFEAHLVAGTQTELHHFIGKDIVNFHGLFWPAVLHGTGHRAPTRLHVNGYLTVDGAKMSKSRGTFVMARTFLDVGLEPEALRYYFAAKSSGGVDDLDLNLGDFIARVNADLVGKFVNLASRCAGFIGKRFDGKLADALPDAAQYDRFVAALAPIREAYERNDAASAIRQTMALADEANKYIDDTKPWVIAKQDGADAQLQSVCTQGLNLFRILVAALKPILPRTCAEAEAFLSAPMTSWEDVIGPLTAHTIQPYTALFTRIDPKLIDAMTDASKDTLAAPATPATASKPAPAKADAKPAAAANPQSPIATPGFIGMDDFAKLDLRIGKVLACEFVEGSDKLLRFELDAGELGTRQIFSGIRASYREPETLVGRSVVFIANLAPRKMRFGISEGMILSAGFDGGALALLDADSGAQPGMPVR
T2 sequence (Q8PMP0 whole entry): as above

With `Nc1ncnc2c1ncn2[C@@H]1O[C@H](COP(=O)(O)OP(=O)(O)OP(=O)(O)O)[C@@H](O)[C@H]1O` [ATP] the Tm (XcMetRS (WT) [1]; ligand 5 mM) was 51.3 ^oC, the Tm (XcMetRS (WT) [1]; ligand 5 mM, listed as ATP:Mg) was 51,3 ± 0,3 ^oC and the Tm shift (XcMetRS (WT) [1]; ligand alone) was 3.0 °C. The kcat (XcMetRS (WT) [2]; ATP as varied substrate) was 0.33 ± 0.005 s⁻¹, the “h (Hill slope)” value (XcMetRS (WT) [2]; ATP varied) was 3.3 and the “K’” value (XcMetRS (WT) [2]; ATP varied, L-Met 200 μM) was 0.95 ± 0.08 mM.
For `C[C@H]1[C@H](NC(=O)/C(=N\OC(C)(C)C(=O)O)c2csc(N)n2)C(=O)N1S(=O)(=O)O` [Aztreonam], the “susceptibility phenotype of X. citri in antibiogram” value (shortened to “susceptibility phenotype”) (X. citri strain 306) was “resistant”.
For `CSCC[C@H](N)C(=O)O` [L-Met, L-methionine], the Tm (XcMetRS (WT) [1]; ligand 5 mM) was 55,9 ± 0,2 ^oC and the kcat (XcMetRS (WT) [2]; L-Met as varied substrate) was 0.2062 ± 0.00467 s⁻¹.
In the case of `O=c1cc(NCCCN[C@@H]2CCOc3c(Br)cc(Br)cc32)[nH]c2ccsc12` [REP3123], the Tm (XcMetRS (WT) [1]; ligand 25 µM) is reported as 47,9 ± 0,1 ^oC, the Tm (XcMetRS (WT) [1]; ligand + ATP:Mg) is reported as 50,7 ± 0,1 ^oC and the IC50 [3] is reported as 26.4 µM. For the same compound, the “MIC (minimum inhibitory concentration)” value (X. citri 306) was > 128 µg/mL, the EC50 (X. citri 306) was 60.5 ± 1 µg/mL (≈ 118 µM) and the MIC (X. citri 306) was > 128 µg/mL.
With `C=C(F)c1sc(CNCCCNc2cc(O)c3ccccc3n2)c(C)c1Br` [REP8839] the Tm (XcMetRS (WT) [1]; ligand 25 µM) was 50,6 ± 0,1 ^oC, the Tm (XcMetRS (WT) [1]; ligand + ATP:Mg) was 52,8 ± 0,1 ^oC and the “MIC (minimum inhibitory concentration)” value (X. citri 306) was 64 µg/mL (≈ 142 µM). The EC50 (X. citri 306) was 25.5 ± 1 µg/mL (≈ 56.6 µM), the MIC (X. citri 306) was 64 µg/mL (≈ 142 µM) and the Kd (XcMetRS; in the presence of AMP (5 mM)) was 0.63 µM and 0.6 µM. For the same compound, the Kd (XcMetRS; in the presence of ATP (5 mM)) was 1.37 µM and 1.4 µM, the KD (XcMetRS; in the absence of nucleotides) was “no KD for REP8839 could be measured” and the IC50 (XcMetRS (WT) [4]) was 20.8 ± 6.5 µM.
With `CC1(C)S[C@@H]2[C@H](NC(=O)[C@H](N)c3ccc(O)cc3)C(=O)N2[C@H]1C(=O)O` [amoxicillin] the “susceptibility phenotype” value (X. citri strain 306) was “resistant”.
For `CC1(C)S[C@@H]2[C@H](NC(=O)[C@H](N)c3ccccc3)C(=O)N2[C@H]1C(=O)O` [ampicillin], the “susceptibility phenotype” value (X. citri strain 306) was “resistant”.
For `N[C@@H](C(=O)N[C@@H]1C(=O)N2C(C(=O)O)=C(Cl)CS[C@H]12)c1ccccc1` [cefaclor], the “susceptibility phenotype” value (X. citri strain 306) was “resistant”.
For `CO/N=C(\C(=O)N[C@@H]1C(=O)N2C(C(=O)[O-])=C(C[N+]3(C)CCCC3)CS[C@H]12)c1csc(N)n1` [cefepime], the “susceptibility phenotype” value (X. citri strain 306) was “resistant”.
With `CO/N=C(\C(=O)N[C@@H]1C(=O)N2C(C(=O)O)=C(COC(C)=O)CS[C@H]12)c1csc(N)n1` [cefotaxime] the “susceptibility phenotype” value (X. citri strain 306) was “resistant”.
`CO[C@@]1(NC(=O)Cc2cccs2)C(=O)N2C(C(=O)O)=C(COC(N)=O)CS[C@@H]21` [cefoxitin] was tested, and the “susceptibility phenotype” value (X. citri strain 306) was “resistant”.
For `CC(C)(O/N=C(\C(=O)N[C@@H]1C(=O)N2C(C(=O)[O-])=C(C[n+]3ccccc3)CS[C@H]12)c1csc(N)n1)C(=O)O` [ceftazidime], the “susceptibility phenotype” value (X. citri strain 306) was “resistant”.
For `CO/N=C(\C(=O)N[C@@H]1C(=O)N2C(C(=O)O)=C(CSc3nc(=O)c(=O)[nH]n3C)CS[C@H]12)c1csc(N)n1` [ceftriaxone], the “susceptibility phenotype” value (X. citri strain 306) was “resistant”.
For `CC(=O)OCC1=C(C(=O)O)N2C(=O)[C@@H](NC(=O)Cc3cccs3)[C@H]2SC1` [cephalothin], the “susceptibility phenotype” value (X. citri strain 306) was “resistant”.
With `C[C@@H](O)[C@H]1C(=O)N2C(C(=O)O)=C(SCCN=CN)C[C@H]12` [imipenem] the “susceptibility phenotype” value (X. citri strain 306) was “resistant”.
With `O=C1CN(/N=C/c2ccc([N+](=O)[O-])o2)C(=O)N1` [nitrofurantoin] the “susceptibility phenotype” value (X. citri strain 306) was “resistant”.
With `NC[C@H]1O[C@H](O[C@H]2[C@H](O)[C@@H](O[C@H]3O[C@H](CO)[C@@H](O)[C@H](N)[C@H]3O)[C@H](N)C[C@@H]2N)[C@H](N)C[C@@H]1O` [tobramycin] the “susceptibility phenotype” value (X. citri strain 306) was “close to breakpoint values considered for a resistant phenotype”.
For neomycin, the “susceptibility phenotype” value (X. citri strain 306) was “close to breakpoint values considered for a resistant phenotype”.
